Results taken from US20080014133A1, “Extraction Of Radionuclides By Crown Ether-Containing Extractants” (priority 2004, published 2008).

What was measured:
[1] = as described in US patent 4749518; cited from earlier work
[2] = as described in US patent 4749518; with dinanylnaphthalene sulfonic acid in tributyl phosphate and kerosene; cited from earlier work
[3] = as described in US patent 4749518; cited from earlier work; remark: listed apart in the source
[4] = as described in US patent 4749518; cited from earlier work; remark: listed apart in the source
[5] = as described in US patent 4749518; cited from earlier work; remark: listed apart in the source
[6] = as described in US patent 4749518; cited from earlier work; remark: listed apart in the source
[7] = Radiation resistance of the extractants (gamma irradiation); format: physicochemical; conditions: for Distribution ratio DMe after irradiation / Distribution ratio after irradiation, % of original: dose 100.0 kGr (10^7 rad); for Usefulness of extractant after irradiation: dose 285.3 kGr
Source text: The radiation resistance of the extractants according to the invention used for extraction radionuclides of strontium or cesium was studied. For this purpose, reaction mixtures consisting of biphase water-organic systems containing extractants based on crown ethers DCH18C6 or DB21C7 in Fluoroheptanol n3 and aqueous nitrate waste solutions, and, for comparison, reaction mixtures containing extractants based on crown ethers Crown XVI or Crown XVII with a cation exchanger—dinanylnaphthalene of sulfonic acids in a matrix solution comprising tributyl phosphate and kerosene were irradiated with gamma-rays […] in a temperature-controlled cell of stainless steel with continuous agitation by bubbling. The maximum integrated radiation dose was equal to 285.3 kGr. The extractant samples were tested and the extraction characteristics were measured before and after the irradiation to determine a decrease of the distribution ratio DMe due to the radiological destruction of extractant components.

[8] = as described in US patent 4749518; cited from earlier work; remark: listed apart in the source
[9] = as described in US patent 4749518; cited from earlier work; remark: listed apart in the source
[10] = as described in US patent 4749518; cited from earlier work; remark: listed apart in the source
[11] = Distribution ratio of strontium extracted in organic solutions of crown ethers (Table 1); format: physicochemical; conditions: Sr and Cs 1 g/l, nitric acid about 3.0 mol/l
Description: (§1) Study was carried out for determining the distribution ratios of radionuclides, for example, strontium or cesium to be extracted by the extractants according to the invention containing various crown ethers as a complexing agent: bis(tert-butylbenzo)-18-crown-6 (subsequently referred to as DTBDB18C6), di-isooctylbenzo-18-crown-6 (subsequently referred to as DIODB18C6), bis(tert-butylcyclohexane-18-crown-6 (subsequently referred to as DTBDCH18C6), di-isooxyldicyclohexane-18-crown-6 (subsequently referred to as DIODCH18C6), bicyclohexane-18-crown-6 (subsequently referred to as DCH18C6) or dibenzo-21-crown-7 (subsequently referred to as DB21C7), in an organic solvent according to the invention: polyfluorinated telomeric alcohol 1,1,7-trihydrododecafluoroheptanol-1 (subsequently referred to as fluoroheptanol n3).
(§2) For comparison, the distribution ratios of strontium and cesium were determined using extractants containing similar crown ethers in another organic solvent (decane).
(§3) Taken for the tests were experimental aqueous nitrate solutions containing strontium and cesium in a concentration of 1 g/l with a content of nitric acid of about 3.0 mol/l.

[12] = Distribution ratio of cesium extracted in organic solutions of crown ethers (Table 1); format: physicochemical; conditions: Sr and Cs 1 g/l, nitric acid about 3.0 mol/l
Description: as §1, §2, §3

[13] = Influence of nitric acid concentration on extraction of sodium; format: physicochemical; conditions: crown ether about 0.1 mol/l in Fluoroheptanol n3
Description: Selected for study were extractants containing crown ethers: DB18C6, DTBDB18C6, DCH18C6 or DB21C7 in a concentration of about 0.1 mol/l in Fluoroheptanol n3. Used as experimental solutions were aqueous solutions of sodium nitrate whose concentration was determined using radiometric techniques on previously added aliquot of a sodium-22 isotope.

[14] = Interaction of extractants with sodium (organic/aqueous phase concentration); format: physicochemical
Description: The characteristics of the extractants according to the invention in the process of extraction of sodium from acidic aqueous solutions of high-level waste were determined. For this purpose, the concentration of sodium in the organic and aqueous phases containing extractants based on DTBDB18C6 or DCH18C6 or DB21C7 in a concentration about of 0.05 mol/l in fluoroheptanol n3 were analyzed.

[15] = Influence of nitric acid concentration on cesium extraction from solution No.1; format: physicochemical; conditions: solution No.1
Source text: The dependence of extraction of cesium by organic solutions DTBDB18C6 in fluoropentanol n3 and DB21C7 in Fluoroheptanol n3 at a concentration of nitric acid in a starting solution was studied. Solution No.1 whose composition is listed in Table 2 was used as a starting solution.

[16] = Influence of sodium concentration on extraction of cesium; format: physicochemical; conditions: Cs 1 g/l, nitric acid about 3.0 mol/l
Description: Extraction of cesium was made involving starting solutions containing 1 g/l of cesium in nitric acid having concentration about of 3.0 mol/l at different concentration of sodium. The solutions were treated with the extractants according to the invention containing crown ether DTBDB18C6 in a concentration about of 0.1 mol/l in fluoroheptanol n3.

[17] = crown ether 0.1 mole/l in Decane
[18] = crown ether 0.1 mole/l in Fluoroheptanol n3

CCCCC(CC)C(O)c1ccc2c(c1)OCCOCCOc1cc(C(O)C(CC)CCCC)ccc1OCCOCCO2 (mixture of isomers) [Crown XVII, bis-4,4′(5′)[1-hydroxy-2-ethylhexyl]benzo-18-crown-6]
Distribution ratios, Rare-earth [1]: 0.17
Distribution ratios, Ba [2]: 0.03
Distribution ratios, Rb [3]: 0.29
Distribution ratios, Ru [4]: 0.31
Distribution ratios, Sr [5]: 0.06
Distribution ratios, Y [6]: 0.02
Distribution ratio before irradiation ([7]; Cs): 1.59
Distribution ratio DMe after irradiation ([7]; Cs): 1.04
Distribution ratio after irradiation, % of original ([7]; Cs): 65.41%
Reduction of the distribution ratio of cesium after irradiation ([7]; dose 100 kGr): 35%
Usefulness of extractant after irradiation [7]: practically useless
Distribution ratios, Cs [8]: 1.59
Distribution ratios, Zr [9]: 2.09
Distribution ratios, Pd [10]: 0.22

di-isooxyldicyclohexane-18-crown-6 [DIODCH18C6]
Distribution ratio Strontium [11, 17]: <0.001
Distribution ratio Strontium [11, 18]: 0.106
Distribution ratio Cesium [12, 17]: 0.004

CC(C)(C)c1ccc2c(c1)OCCOCCOc1ccc(C(C)(C)C)cc1OCCOCCO2 [DTBDB18C6, bis(tert-butylbenzo)-18-crown-6]
Distribution ratio Strontium [11, 18]: 0.11
Distribution ratios of sodium ([13]; nitric acid 0 mol/l): 0.03
Distribution ratios of sodium ([13]; nitric acid 0.1 mol/l): 0.04
Distribution ratios of sodium ([13]; nitric acid 0.5 mol/l): 0.17
Distribution ratios of sodium ([13]; nitric acid 1.0 mol/l): 0.27
Distribution ratios of sodium ([13]; nitric acid 3.0 mol/l): 0.55
Distribution ratios of sodium ([13]; nitric acid 5.0 mol/l): 0.64
Distribution ratio Cesium [12, 18]: 15.45
Sodium concentration in the organic phase ([14]; sodium in the aqueous phase 0.01 mol/l, crown ether about 0.05 mol/l in fluoroheptanol n3): 0 mol/L
Sodium concentration in the organic phase ([14]; sodium in the aqueous phase 0.1 mol/l, crown ether about 0.05 mol/l): 0.035 mol/L
Sodium concentration in the organic phase ([14]; sodium in the aqueous phase 0.2 mol/l, crown ether about 0.05 mol/l): 0.07 mol/L
Sodium concentration in the organic phase ([14]; sodium in the aqueous phase 0.4 mol/l, crown ether about 0.05 mol/l): 0.14 mol/L
Distribution ratios of cesium ([15]; nitric acid 0 mol/l, Fluoroheptanol n3): 2.5
Distribution ratios of cesium ([15]; nitric acid 0.1 mol/l): 7.1
Distribution ratios of cesium ([15]; nitric acid 0.5 mol/l): 12.8
Distribution ratios of cesium ([15]; nitric acid 1.0 mol/l): 12.3
Distribution ratios of cesium ([15]; nitric acid 2.0 mol/l): 10.3
Distribution ratios of cesium ([15]; nitric acid 3.0 mol/l): 8.2
Distribution ratios of cesium ([15]; nitric acid 4.0 mol/l): 6.0
Distribution ratios of cesium ([15]; nitric acid 5.0 mol/l): 4.0
Distribution ratios of cesium ([15]; nitric acid 6.0 mol/l): 2.7
Distribution ratios of cesium ([15]; nitric acid 7.0 mol/l): 1.1
Distribution ratios of cesium ([15]; nitric acid 8.0 mol/l): 0
Cesium distribution ratio ([16]; sodium nitrate 0 mole/l, crown ether about 0.1 mol/l in fluoroheptanol n3): 16.0
Cesium distribution ratio ([16]; sodium nitrate 0.02 mole/l): 9.0
Cesium distribution ratio ([16]; sodium nitrate 0.03 mole/l): 9.1
Cesium distribution ratio ([16]; sodium nitrate 0.04 mole/l): 9.3
Cesium distribution ratio ([16]; sodium nitrate 0.20 mole/l): 3.0

di-isooctylbenzo-18-crown-6 [DIODB18C6]
Distribution ratio Strontium [11, 17]: 0.05
Distribution ratio Strontium [11, 18]: 0.06
Distribution ratio Cesium [12, 17]: 0.004
Distribution ratio Cesium [12, 18]: 4.23

CCCCCCC(O)C1CCC2OCCOCCOC3CCC(C(O)CCCCCC)CC3OCCOCCOC2C1 (mixture of isomers) [Crown XVI, bis-4,4′(5′)[1-hydroxyheptyl]cyclohexo-18-crown-6]
Distribution ratios, Rare-earth [1]: 0.06
Distribution ratios, Ba [2]: 4.2
Distribution ratios, Rb [3]: 0.11
Distribution ratios, Ru [4]: 0.26
Distribution ratios, Sr [5]: 3.84
Distribution ratios, Y [6]: 0.02
Distribution ratio before irradiation ([7]; Sr): 1.98
Distribution ratio DMe after irradiation ([7]; Sr): 1.56
Distribution ratio after irradiation, % of original ([7]; Sr): 78.78%
Loss of the distribution ratio of strontium after irradiation ([7]; dose 100 kGr): about 21%
Usefulness of extractant after irradiation [7]: practically useless
Distribution ratios, Cs [8]: 0.03
Distribution ratios, Zr [9]: 1.41
Distribution ratios, Pd [10]: 0.05

c1ccc2c(c1)OCCOCCOc1ccccc1OCCOCCO2 [DB18C6, dibenzo-18-crown-6]
Distribution ratios of sodium ([13]; nitric acid 0 mol/l): 0.025
Distribution ratios of sodium ([13]; nitric acid 0.1 mol/l): 0.04
Distribution ratios of sodium ([13]; nitric acid 0.5 mol/l): 0.15
Distribution ratios of sodium ([13]; nitric acid 1.0 mol/l): 0.21
Distribution ratios of sodium ([13]; nitric acid 3.0 mol/l): 0.49
Distribution ratios of sodium ([13]; nitric acid 5.0 mol/l): 0.67

CC(C)(C)C1CCC2OCCOCCOC3CC(C(C)(C)C)CCC3OCCOCCOC2C1 (centres unmarked) [DTBDCH18C6]
Distribution ratio Strontium [11, 17]: <0.001
Distribution ratio Strontium [11, 18]: 1.91
